Experimental data as given in patent US11585819B2, “Bistrifilate-based fluorogenic probes for detection of superoxide anion radical” (THE UNIVERSITY OF HONG KONG, priority 2014, dated 2023).
Read-outs that look alike come from different tables or passages of the source.

Legend:
[1] = test system: mouse microglia (BV-2 cells); experiment: Confocal imaging of endogenous O2^•− with HKSOX-2m in PMA-activated microglia; format: cell-based; conditions: 30 min; for effect on HKSOX-2m fluorescence in PMA-stimulated microglia: Mdivi-1 100 μM, Gö6983 100 nM
Procedure: (§1) We assessed the application of HKSOX-2m (2 μM) in confocal imaging of O2^•− in different types of cell. For detection of endogenous O2^•−, two different cell types were used: mouse macrophages (RAW264.7 cells) and mouse microglia (BV-2 cells). PMA (phorbol-12-myristate-13-acetate), a PKC activator and acute O2^•− inducer, was used to activate macrophages. The chemical scavenger TEMPOL (4-hydroxy-TEMPO; 300 μM) was used to remove O2^•− in activated macrophages. Mdivi-1 (100 μM), a Drp-1 (dynamin-related protein 1) inhibitor that inhibits mitochondrial fission and subsequent mitochondrial O2^•− production, was used to block mitochondrial O2^•− formation. Additionally, Gö6983 (100 nM), a PKC inhibitor, was used to abolish PMA-mediated effects in O2^•− induction.

[2] = test system: mouse macrophages (RAW264.7 cells); experiment: Confocal imaging of endogenous O2^•− with HKSOX-2m in PMA-activated macrophages; format: cell-based; conditions: 30 min; for effect on HKSOX-2m fluorescence in PMA-stimulated macrophages: Mdivi-1 100 μM, Gö6983 100 nM
Procedure: as §1

[3] = test system: RAW264.7 mouse macrophages; experiment: Confocal imaging of endogenous O2^•− with HKSOX-1r in LPS/IFN-γ activated macrophages; format: cell-based
Procedure: We assessed the application of HKSOX-1r in confocal imaging of O2^•− in different types of cell. For detection of endogenous O2^•−, we used mouse macrophages (RAW264.7 cells) as a cellular model. Bacterial lipopolysaccharide (LPS from Salmonella typhimurium; 500 ng/mL) and the proinflammatory cytokine interferon-γ (IFN-γ from mouse; 50 ng/mL) were used to activate macrophages. […] Additionally, the O2^•− decomposition catalyst FeTMPyP (50 μM) and chemical scavenger TEMPOL (4-hydroxy-TEMPO; 300 μM) were used to remove O2^•− in activated macrophages.
The cells were co-stained with mitochondrial dye MitoTracker Red (50 nM) and nuclear DNA dye Hoechst 33342 (150 ng/mL) for 30 min. Merged: all fluorescence images merged. (a) Untreated cells; (b) cells stimulated with LPS (500 ng/mL) and IFN-γ (50 ng/mL) for 14 h, followed by HKSOX-1r staining for 30 min; (c) cells co-treated with LPS/IFN-γ and gp91ds-tat (2 μM) for 14 h, followed by HKSOX-1r staining (30 min); (d) cells stimulated with LPS/IFN-γ for 14 h, followed by co-incubation of HKSOX-1r and FeTMPyP (50 μM) for 30 min; (e) cells stimulated with LPS/IFN-γ for 14 h, followed by co-incubation of HKSOX-1r and TEMPOL (300 μM) for 30 min.

[4] = test system: HCT116 (human colon cancer cells), RAW264.7 (mouse macrophages), BV-2 (mouse microglia); experiment: Confocal imaging with HKSOX-1r of O2^•− induced by mitochondrial respiratory inhibitors; format: cell-based
Procedure: To validate the inhibitor effects, three different types of cell were used: HCT116 (human colon cancer cells), RAW264.7 (mouse macrophages), and BV-2 (mouse microglia).
(§2) In each group, upper: fluorescence images; lower: fluorescence images merged with bright field images.
(left) Untreated cells incubated with probe alone for 30 min. (right) Cells co-incubated with probe and antimycin A (5 μM) for 30 min. Upper: fluorescence images; lower: fluorescence images merged with bright field images.

[5] = test system: Hela (human cervical epithelial cancer cells), BV-2 (mouse microglia), RAW264.7 (mouse macrophages); experiment: Confocal imaging with HKSOX-2 of O2^•− induced by mitochondrial respiratory inhibitors; format: cell-based; parameters: probe fluorescence response upon induction of mitochondrial O2^•−: dose or concentration left out as unconfirmed
Procedure: We also tested HKSOX-2 (5 μM) in detection of O2^•− induced by mitochondrial respiratory inhibitors (30 min treatment): antimycin A (complex III inhibitor; 10 μM), rotenone (complex I inhibitor; 10 μM) and FCCP ([…]; 10 μM). To validate the inhibitor effects, three different types of cell were used: Hela (human cervical epithelial cancer cells), BV-2 (mouse microglia), and RAW264.7 (mouse macrophages).
as §2

[6] = test system: BV-2 mouse microglial cells; experiment: Confocal imaging comparison of HKSOX-2m and MitoSOX Red with multiple superoxide inducers, co-staining with MitoTracker Green and Hoechst; format: cell-based; conditions: for fluorescence with various stimulants: 40 min; for fluorescence turn-on response: Ex 543 nm
Procedure: To further validate the performance of HKSOX-2m as a mitochondria-targeting superoxide probe, we conducted confocal imaging of HKSOX-2m with multiple superoxide inducers in BV-2 mouse microglial cells (FIG. 11), and compared HKSOX-2m's performance with that of MitoSOX Red™ (a widely used commercial fluorescent probe for mitochondrial superoxide detection; Invitrogen), by using the same drugs as stimulants (FIG. 12). Briefly, BV-2 cells were co-incubated for 40 min with probes (HKSOX-2m or MitoSOX Red™) and general superoxide inducers (PMA and zymosan, which elicit superoxide production from multiple superoxide sources including mitochondria) or specific mitochondrial superoxide inducers (diethyl succinate, diethyl malonate, and rotenone, which target the mitochondrial respiratory chain complexes). […] Slight spatial shifts in fluorescence signal were occasionally observed in the HKSOX-2m and MitoTracker Green channels, which could be accounted for by mitochondrial dynamics and time lag in confocal laser scanning for each channel. […] In fact, fluorescence distribution of the mitochondrial dye MitoTracker Green (Ex 488; Em 505 nm long-pass) was grossly distorted in the presence of MitoSOX Red™ (due to its broad tailing in emission spectrum), resulting in a loss of mitochondrial morphology.

[7] = Fluorescence response of probe to O2^•− generated by xanthine/xanthine oxidase and to other oxidants, reductants, esterase and GSH in phosphate buffer; conditions: 1 μM probe
Procedure: The stock solution of HKSOX-1 (10 mM) is diluted in 0.1 M potassium phosphate buffer at pH 7.4 to obtain a 10 μM solution, with excitation and emission spectra at 509 nm and 534 nm, respectively. As expected, the probe HKSOX-1 was non-fluorescent (FIG. 1).
The stock solution of HKSOX-2 (1 mM) is diluted in 0.1 M potassium phosphate buffer at pH 7.4 to obtain a 1 μM solution, with excitation and emission spectra at 535 nm and 562 nm, respectively.

[8] = test system: BV-2 mouse microglial cells; conditions: MitoSOX Red 5 μM (maximal dose according to manufacturer's protocol), extended incubation; cited from earlier work
[9] = TEMPOL 300 μM, readout HKSOX-2m 2 μM
[10] = 30 min, antimycin A, rotenone, FCCP 10 μM, readout HKSOX-2
[11] = 30 min, antimycin A, rotenone, FCCP 5 μM, malonic acid 500 μM, readout HKSOX-1r 2 μM

CC1(C)CC(O)CC(C)(C)N1[O] [TEMPOL, 4-hydroxy-TEMPO]
effect on the PMA-induced surge in O2^•− production [1, 9]: greatly suppressed | effect on the PMA-induced surge in O2^•− production [2, 9]: greatly suppressed | effect on HKSOX-1r fluorescence in LPS/IFN-γ activated macrophages ([3]; FeTMPyP 50 μM or TEMPOL 300 μM co-incubated with HKSOX-1r for 30 min): substantially attenuated

COC(=O)CN(CC(=O)OC)C(=O)c1ccc2c(c1)C(=O)OC21c2cc(F)c(OS(=O)(=O)C(F)(F)F)c(F)c2Oc2c1cc(F)c(OS(=O)(=O)C(F)(F)F)c2F [HKSOX-1r]
probe fluorescence response upon induction of mitochondrial O2^•− ([4]; HKSOX-1r at 2 μM, 30 min): strong fluorescence response | probe fluorescence in stimulated macrophages relative to untreated ones ([3]; HKSOX-1r 2 μM, 30 min staining, LPS 500 ng/mL and IFN-γ 50 ng/mL for 14 h): much stronger fluorescence signals

N#CC(C#N)=NNc1ccc(OC(F)(F)F)cc1 [FCCP]
degree of efficacy in inducing mitochondrial O2^•− production (rank order) [5]: antimycin A>FCCP>>rotenone | degree of efficacy in inducing mitochondrial O2^•− production (rank order) [4]: antimycin A>FCCP>>rotenone>>malonic acid

COc1ccc2c(c1)c(C1=C(c3c[nH]c4ccccc34)C(=O)NC1=O)cn2CCCN(C)C [Gö6983]
effect on HKSOX-2m fluorescence in PMA-stimulated microglia [1]: reduced to near basal level | effect on HKSOX-2m fluorescence in PMA-stimulated macrophages [2]: reduced to near basal level

C=C(C)[C@H]1Cc2c(ccc3c2O[C@@H]2COc4cc(OC)c(OC)cc4[C@@H]2C3=O)O1 [rotenone]
degree of efficacy in inducing mitochondrial O2^•− production (rank order) [5, 10]: antimycin A>FCCP>>rotenone | degree of efficacy in inducing mitochondrial O2^•− production (rank order) [4, 11]: antimycin A>FCCP>>rotenone>>malonic acid

O=C(O)CC(=O)O [malonic acid]
degree of efficacy in inducing mitochondrial O2^•− production (rank order) [4, 11]: antimycin A>FCCP>>rotenone>>malonic acid

CC1CC(C)(C)N(CCCC(=O)N2CCN(C(=O)CCCC[P+](c3ccccc3)(c3ccccc3)c3ccccc3)CC2)c2cc3c(cc21)C1(OC(=O)c2ccccc21)c1cc(F)c(OS(=O)(=O)C(F)(F)F)c(F)c1O3 (stereo not drawn) [HKSOX-2m]
fluorescence with various stimulants ([6]; HKSOX-2m 2 μM, PMA, zymosan, diethyl succinate, diethyl malonate, rotenone): moderate to strong fluorescence | fluorescence turn-on response ([6]; HKSOX-2m working dose 2 μM, Em 559-623 nm band-pass): highly efficient | probe fluorescence in PMA-stimulated microglia relative to untreated ones ([1]; HKSOX-2m 2 μM, PMA 200 ng/mL): much stronger fluorescence signals | probe fluorescence in PMA-stimulated macrophages relative to untreated ones ([2]; HKSOX-2m 2 μM, PMA 200 ng/mL): much stronger fluorescence signals

CCOC(=O)CCCN1c2cc3c(cc2C(C)CC1(C)C)C1(OC(=O)c2ccccc21)c1cc(F)c(OS(=O)(=O)C(F)(F)F)c(F)c1O3 (stereo not drawn) [HKSOX-2]
enhancement in fluorescence intensity upon O2^•− ([7]; 10 equiv of O2^•− generated by X/XO system, 15 min, pH 7.4): > 23 fold | increase in fluorescence signals by other oxidants, reductants, esterase and GSH ([7]; 10 equiv of H2O2, NO, 1O2, ROO•, TBHP, •OH, ONOO−, HOCl, Fe2+, ascorbic acid, 1,4-hydroquinone, esterase 10 U/mL, GSH 5 mM): negligible increase | probe fluorescence response upon induction of mitochondrial O2^•− ([5]; 30 min): strong fluorescence response

Nc1ccc2c(c1)C(c1ccccc1)N(CCCCCC[P+](c1ccccc1)(c1ccccc1)c1ccccc1)c1cc(N)ccc1-2.[I-] (stereo not drawn) [MitoSOX Red™]
toxicity of the working dose ([6]; MitoSOX Red 4 μM): near-toxic | fluorescence with various stimulants ([6]; MitoSOX Red 4 μM, same stimulants): low to moderate fluorescence | fluorescence turn-on response ([6]; MitoSOX Red working dose 4 μM): rather sluggish | toxicity of the maximal dose [8]: cytotoxic

COc1cc(-n2c(=S)[nH]c3ccccc3c2=O)c(Cl)cc1Cl [Mdivi-1]
effect on HKSOX-2m fluorescence in PMA-stimulated microglia [1]: reduced to near basal level | effect on HKSOX-2m fluorescence in PMA-stimulated macrophages [2]: reduced to near basal level

antimycin A
degree of efficacy in inducing mitochondrial O2^•− production (rank order) [5, 10]: antimycin A>FCCP>>rotenone | degree of efficacy in inducing mitochondrial O2^•− production (rank order) [4, 11]: antimycin A>FCCP>>rotenone>>malonic acid
